Source: paper PMC10544575, “Inhibitory mechanism of vortioxetine on CYP450 enzymes in human and rat liver microsomes” (Frontiers in Pharmacology, 2023)

Assays:
CYP2C-1 = experiment: Reversible inhibition kinetics (Lineweaver-Burk), CYP2C-1 in RLMs; type: in vitro ADME, rat
Experimental: (§1) The components of the incubation system were as follows: 0.20 mg/mL HLMs or 0.20 mg/mL RLMs, 0.1 M Tris-HCl, vortioxetine, and the probe substrates of each enzyme. In the study of Km’s (Michaelis–Menten constant) experiment, midazolam (1, 2, 5, 10, 20, 50 and 100 μM in HLMs and RLMs) corresponded to CYP3A4/3A; bupropion (10, 20, 50, 100, 200, 500, 1,000 and 2000 μM in HLMs; 1, 2, 5, 10, 20, 50, 100 and 200 μM in RLMs) corresponded to CYP2B6/2B; amodiaquine (5, 10, 20, 50, 100 and 200 μM in HLMs; 10, 20, 50, 100, 200, 500 μM in RLMs) corresponded to CYP2C8/CYP2C-1; losartan (1, 2, 5, 10, 20, 50, 100, 200 μM in HLMs; 10, 20, 50, 100, 200, 500 and 1,000 μM in RLMs) corresponded to CYP2C9/CYP2C-2; mephenytoin (20, 50, 100, 200, 500 and 1,000 μM in HLMs; 5, 10, 20, 50, 100, 200, 500 and 1,000 μM in RLMs) corresponded to CYP2C19/CYP2C-3; and dextromethorphan (1, 2, 5, 10, 20, 50 and 100 μM in HLMs and RLMs) corresponded to CYP2D6/CYP2D. After 5.0 min of preincubation in the shaking water bath, the reaction was started with the addition of 1.0 mM NADPH. The incubated temperature at 37°C for 30 min. After the incubation, the enzyme reaction was stopped by cooling at −80°C, and 200 μL of acetonitrile and 20 μL of internal standard diazepam (200 ng/mL) were added for protein precipitation. The solution was fully vortexed and centrifuged at 13,000 × rpm for 10 min, and the supernatant was collected for data analysis by UPLC-MS/MS.
The inhibitory mechanism of the inhibitor on the enzyme was generally used by different concentrations of the inhibitor against different concentrations of the probe substrate. The concentrations of the inhibitor and the concentrations of probe substrates in the experiment were estimated based on IC50 and Km values, respectively.
In RLMs, the concentrations of the substrates midazolam and dextromethorphan were 0.8, 1.6, 3.5, 7 μM and 5, 10, 20, 40 μM, respectively, vortioxetine concentrations were 4, 8, 16, 32 μM. The concentrations of mephenytoin and amodiaquine were 100, 200, 400, 800 μM and 5, 10, 20, 40 μM, respectively, vortioxetine concentrations were 5, 10, 20, 40 μM. The losartan concentrations were 4, 8, 15, 30 μM, corresponding to vortioxetine concentrations of 0.08, 0.15, 0.3, 0.6 μM. […]
(§2) All experiments results were detected by UPLC-MS/MS, which equipped with a Waters Acquity UPLC system (Milford, MA, United States) and a Waters Xevo TQ-S triple quadrupole tandem mass spectrometer with an electrospray ionization source (Milford, MA, United States). […]
(§3) IC50 values and enzyme kinetic parameters were calculated by Graphpad Prism 6.0 (GraphPad software Inc., CA, United States). […] Data for each experiment were expressed as mean ± SD (n = 3).

CYP3A4 = CYP3A4 (Homo sapiens, UniProt P08684); experiment: IC50-shift experiment, CYP3A4 in HLMs; type: in vitro ADME; design: 0.20 mg/mL HLMs or 0.20 mg/mL RLMs; from tissue; host or cells: human liver microsomes; settings: for IC50: midazolam 4 μM
Experimental: as §1, with “The solution was fully vortexed and centrifuged at 13,000 × rpm for 10 min, and the supernatant was collected for data analysis by UPLC-MS/MS.” left out
IC50-shift was used to investigate whether the drug produced time-dependent inhibition (TDI) of the enzyme. […] During the experiment, the individual substrates midazolam (4 μM), bupropion (40 μM), amodiaquine (3 μM), losartan (8 μM), mephenytoin (90 μM), and dextromethorphan (10 μM) were determined with vortioxetine IC50-shift in HLMs. […]
as §2, §3

Chain of CYP3A4 (P08684 whole entry): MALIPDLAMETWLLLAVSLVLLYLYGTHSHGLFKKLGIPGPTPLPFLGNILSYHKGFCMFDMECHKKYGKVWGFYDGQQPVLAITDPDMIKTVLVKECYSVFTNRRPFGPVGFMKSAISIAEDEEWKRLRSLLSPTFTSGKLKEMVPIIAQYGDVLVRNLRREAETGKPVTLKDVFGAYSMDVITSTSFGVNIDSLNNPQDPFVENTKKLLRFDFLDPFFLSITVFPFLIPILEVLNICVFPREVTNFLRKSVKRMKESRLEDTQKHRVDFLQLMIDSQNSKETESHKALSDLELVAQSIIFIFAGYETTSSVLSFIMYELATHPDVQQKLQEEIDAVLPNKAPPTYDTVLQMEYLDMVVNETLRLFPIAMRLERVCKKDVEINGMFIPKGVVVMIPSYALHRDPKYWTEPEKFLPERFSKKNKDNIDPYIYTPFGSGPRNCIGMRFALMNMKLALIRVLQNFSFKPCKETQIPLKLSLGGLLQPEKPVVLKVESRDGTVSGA

α (CYP2C-1; amodiaquine): 1.42
Inhibition type (CYP2C-1; amodiaquine, Lineweaver-Burk plot): mixed inhibition
αKi (CYP2C-1; amodiaquine, secondary plot of y-intercepts): 56.73 µM
Ki at 30 min (CYP2C-1; rat, rat liver microsomes, probe amodiaquine): 39.9 µM
IC50 (CYP3A4; 30 min preincubation with 1.0 mM NADPH): 13.7 µM
IC50 (CYP3A4; 30 min preincubation without NADPH): 15.5 µM
Compound: Cc1ccc(Sc2ccccc2N2CCNCC2)c(C)c1 [vortioxetine]
IC50 shift at 30 min (CYP3A4; human, human liver microsomes, probe midazolam (4 μM), ratio IC50 (−) NADPH to IC50 (+) NADPH, read-out: IC50 fold shift): 1.14
